Experimental data: ChEMBL document CHEMBL1667721, “Isolation, structure elucidation, and cytotoxic evaluation of furanonaphthoquinones from in vitro plantlets and cultures of Streptocarpus dunnii” (J Nat Prod, 2011); call rule not given here

Experiments:
MIA PaCa-2 [1] = test: Cytotoxicity against human MIAPaCa2 cells after 6 days
BT-474 [2] = test: Cytotoxicity against human BT474 cells after 6 days
[3] = Cytotoxicity against human Hs 578T cells after 6 days
MCF7 [4] = test: Cytotoxicity against human MCF7 cells after 6 days
MCF7 [5] = test: Cytotoxicity against human MCF7 cells after 24 hrs; assay type: functional, cell-based
MIA PaCa-2 [6] = test: Cytotoxicity against human MIAPaCa2 cells after 24 hrs; assay type: functional, cell-based
BT-474 [7] = test: Cytotoxicity against human BT474 cells after 24 hrs; assay type: functional, cell-based
[8] = Cytotoxicity against human Hs 578T cells after 24 hrs; assay type: functional, cell-based
[9] = Homo sapiens, MIA PaCa-2, 6 days, read-out: IC50
[10] = Homo sapiens, BT-474, 6 days, read-out: IC50
[11] = Homo sapiens, Hs-578T, 6 days, read-out: IC50
[12] = Homo sapiens, MCF7, 6 days, read-out: IC50

SMILES	IC50 (MIA PaCa-2 [1]; [9])	IC50 (BT-474 [2]; [10])	IC50 [3, 11]	IC50 (MCF7 [4]; [12])	also measured
C[C@H]1OC2=C(C(=O)c3ccccc3C2=O)C1(C)C	4.6 µM	4.5 µM	> 10 µM	5.8 µM	
C[C@H]1OC2=C(C(=O)C(=O)c3ccccc32)C1(C)C [(3R)-DUNNIONE]	1.9 µM	1 µM	5 µM	2.3 µM	
C[C@H]1OC2=C(C(=O)c3ccc(O)cc3C2=O)C1(C)C	6.7 µM	4.9 µM	> 10 µM	5.7 µM	
COc1cc2c(cc1O)C(=O)C1=C(O[C@H](C)C1(C)C)C2=O					IC50 (MIA PaCa-2 [1]; mia paca-2): Not Active; IC50 (BT-474 [2]; bt-474): Not Active; IC50 ([3]; hs-578t): Not Active; IC50 (MCF7 [4]; mcf7): Not Active
Cc1ccc2c(c1O)C(=O)c1ccccc1C2=O					IC50 (MCF7 [5]): Not Active; IC50 (MIA PaCa-2 [6]): Not Active; IC50 (BT-474 [7]): Not Active; IC50 [8]: Not Active
